Source: ChEMBL document CHEMBL1137354, “Potent, selective, and orally efficacious antagonists of melanin-concentrating hormone receptor 1” (J Med Chem, 2006)

tested on: not listed separately; assay: Volume of distribution in rat at 3 mg/kg, iv and 10 mg/kg, po; type: ADME, organism-based; settings: in vivo, read-out: Vss

Vd [L/kg] | SMILES
1.1 | O=c1c2sc(-c3ccc(Cl)cc3)cc2ncn1-c1ccc2nc(CN3CCC(c4ccc(C(F)(F)F)cc4)CC3)ccc2c1
2.3 | O=c1c2sc(-c3ccc(Cl)cc3)cc2ncn1-c1ccc2nc(CN3CCC(c4ccc(F)cc4)CC3)ccc2c1
27 | CN(C)CC1CNc2cc(-n3cnc4cc(-c5ccc(Cl)cc5)sc4c3=O)ccc2O1 (configuration not stated)
4.3 | O=c1c2sc(-c3ccc(Cl)cc3)cc2ncn1-c1ccc2nc(CN3CCC(c4ccccc4)CC3)ccc2c1
22 | O=c1c2sc(-c3ccc(Cl)cc3)cc2ncn1-c1ccc2c(c1)OC[C@H](CN1CCCC1)O2

SMILES | Vd [L/kg]
CN1CCN(Cc2ccc3cc(-n4cnc5cc(-c6ccc(Cl)cc6)sc5c4=O)ccc3n2)CC1 | 19

tested on: Mus musculus; assay: Concentration in DIO AKR/J mouse brain at 10 mg/kg, po; type: ADME, organism-based; design: dose 10 mg/kg, route oral; settings: in vivo

SMILES | Drug uptake [ng/g]
CN1CCN(Cc2ccc3cc(-n4cnc5cc(-c6ccc(Cl)cc6)sc5c4=O)ccc3n2)CC1 | 13093

tested on: Mus musculus; assay: Reduction in body weight of DIO AKR/J mouse relative to control at 3 mg/kg/day, po after 26 days; type: functional; design: scale not given: the % may be the effect or the level left; settings: not given

SMILES | Activity [%]
CN1CCN(Cc2ccc3cc(-n4cnc5cc(-c6ccc(Cl)cc6)sc5c4=O)ccc3n2)CC1 | 9.4

tested on: not listed separately; assay: Half life in rat at 3 mg/kg, iv; type: ADME, organism-based; design: dose 3 mg/kg, route intravenous; settings: in vivo

half-life [h] | SMILES
8.5 | O=c1c2sc(-c3ccc(Cl)cc3)cc2ncn1-c1ccc2nc(CN3CCC(c4ccc(C(F)(F)F)cc4)CC3)ccc2c1
16 | O=c1c2sc(-c3ccc(Cl)cc3)cc2ncn1-c1ccc2nc(CN3CCC(c4ccc(F)cc4)CC3)ccc2c1
8 | CN(C)CC1CNc2cc(-n3cnc4cc(-c5ccc(Cl)cc5)sc4c3=O)ccc2O1 (configuration not stated)
8 | O=c1c2sc(-c3ccc(Cl)cc3)cc2ncn1-c1ccc2nc(CN3CCC(c4ccccc4)CC3)ccc2c1
6.1 | O=c1c2sc(-c3ccc(Cl)cc3)cc2ncn1-c1ccc2c(c1)OC[C@H](CN1CCCC1)O2

SMILES | half-life [h]
CN1CCN(Cc2ccc3cc(-n4cnc5cc(-c6ccc(Cl)cc6)sc5c4=O)ccc3n2)CC1 | 7.7

tested on: Mus musculus; assay: Concentration in DIO AKR/J mouse serum at 10 mg/kg, po; type: ADME, organism-based; design: dose 10 mg/kg, route oral; settings: in vivo

SMILES | Drug uptake [ng/mL]
CN1CCN(Cc2ccc3cc(-n4cnc5cc(-c6ccc(Cl)cc6)sc5c4=O)ccc3n2)CC1 | 414

tested on: Mus musculus; assay: Concentration in DIO AKR/J mouse brain at 3 mg/kg, po; type: ADME, organism-based; design: dose 3 mg/kg, route oral; settings: in vivo

SMILES | Drug uptake [ng/g]
CN1CCN(Cc2ccc3cc(-n4cnc5cc(-c6ccc(Cl)cc6)sc5c4=O)ccc3n2)CC1 | 5508

target: Melanin-concentrating hormone receptor 1 (Homo sapiens, UniProt Q99705); assay: Antagonist activity against human MCHR1 expressed in CHO cells by Gal4/Elk1-Luc reporter assay; type: functional, cell-based; settings: not given
Sequence (Q99705 whole entry, the tested form may be a part): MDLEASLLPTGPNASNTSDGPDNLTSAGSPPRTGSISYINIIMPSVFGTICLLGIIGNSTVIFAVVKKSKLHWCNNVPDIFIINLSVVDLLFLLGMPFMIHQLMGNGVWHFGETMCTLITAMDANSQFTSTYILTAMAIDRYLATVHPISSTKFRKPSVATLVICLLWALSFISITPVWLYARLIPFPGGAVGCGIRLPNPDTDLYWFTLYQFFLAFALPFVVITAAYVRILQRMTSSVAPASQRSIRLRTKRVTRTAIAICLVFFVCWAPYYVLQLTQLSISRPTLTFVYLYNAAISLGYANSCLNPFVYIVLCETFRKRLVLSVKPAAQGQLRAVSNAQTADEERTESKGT

SMILES | IC50 [nM]
COc1ccc(-c2cc3ncn(-c4ccc5nc(CN6CCOCC6)ccc5c4)c(=O)c3s2)cc1 | 31
O=c1c2sc(-c3ccc(Cl)cc3)cc2ncn1-c1ccc2nc(CN3CCOCC3)ccc2c1 | 4.9
O=c1c2sc(-c3ccc(Cl)cc3)cc2ncn1-c1ccc2nc(CN3CCC(c4ccc(C(F)(F)F)cc4)CC3)ccc2c1 | 6.1
O=c1c2sc(-c3ccc(Cl)cc3)cc2ncn1-c1ccc2nc(CN3CCN(CCN4CCOCC4)CC3)ccc2c1 | 19
CN(C)C[C@@H]1COc2cc(-n3cnc4cc(-c5ccc(Cl)cc5)sc4c3=O)ccc2O1 | 3.2
CN1CCN(Cc2ccc3cc(-n4cnc5cc(-c6ccc(Cl)cc6)sc5c4=O)ccc3n2)CC1 | 3.1
CN(Cc1ccc2cc(-n3cnc4cc(-c5ccc(Cl)cc5)sc4c3=O)ccc2n1)c1ccccc1 | 87
O=c1c2sc(-c3ccc(Cl)cc3)cc2ncn1-c1ccc2nc(CN3CCC(CCN4CCCC4)CC3)ccc2c1 | 1.5
O=c1c2sc(-c3ccc(Cl)cc3)cc2ncn1-c1ccc2nc(CN3CCCC3)ccc2c1 | 1
CN(C)CC1CNc2cc(-n3cnc4cc(-c5ccc(Cl)cc5)sc4c3=O)ccc2O1 (configuration not stated) | 3.2
CN(C)CC1CN(S(=O)(=O)c2ccccc2)c2cc(-n3cnc4cc(-c5ccc(Cl)cc5)sc4c3=O)ccc2O1 (configuration not stated) | 6920
CCN1CCN(Cc2ccc3cc(-n4cnc5cc(-c6ccc(Cl)cc6)sc5c4=O)ccc3n2)CC1 | 6.2
CN1CCN(CC2CNc3cc(-n4cnc5cc(-c6ccc(Cl)cc6)sc5c4=O)ccc3O2)CC1 (configuration not stated) | 3.5
O=c1c2sc(-c3ccccc3Cl)cc2ncn1-c1ccc2nc(CN3CCOCC3)ccc2c1 | 1260
O=c1c2sc(-c3ccc(Cl)cc3)cc2ncn1-c1ccc2c(c1)OC[C@@H](CN1CCCC1)O2 | 7
O=c1c2sc(-c3ccc(Cl)cc3)cc2ncn1-c1ccc2nc(CN3CCC(N4CCCC4)CC3)ccc2c1 | 5.6
O=c1c2sc(-c3ccc(Cl)cc3)cc2ncn1-c1ccc2nc(CN3CCC(c4ccccc4)CC3)ccc2c1 | 1.3
N#Cc1ccc(-c2cc3ncn(-c4ccc5nc(CN6CCOCC6)ccc5c4)c(=O)c3s2)cc1 | 478
O=c1c2sc(-c3ccc(Cl)cc3)cc2ncn1-c1ccc2nc(CN3CCN(CCCN4CCOCC4)CC3)ccc2c1 | 37
O=c1c2sc(-c3ccc(F)cc3)cc2ncn1-c1ccc2nc(CN3CCOCC3)ccc2c1 | 501
O=c1c2sc(-c3cccc(Cl)c3)cc2ncn1-c1ccc2nc(CN3CCOCC3)ccc2c1 | 3980
O=c1c2sc(-c3ccc(Cl)cc3)cc2ncn1-c1ccc2nc(Cn3ccnc3)ccc2c1 | 2
O=c1c2sc(-c3ccc(Cl)cc3)cc2ncn1-c1ccc2c(c1)OC[C@H](CN1CCCC1)O2 | 24
O=c1c2sc(-c3ccc(Cl)cc3)cc2ncn1-c1ccc2c(c1)NCC(CN1CC[C@@H](O)C1)O2 (some centres not stated) | 3.4
O=c1c2sc(-c3ccc(Cl)cc3)cc2ncn1-c1ccc2nc(CN3CCCCC3)ccc2c1 | 0.89
O=c1c2sc(-c3ccc(Cl)cc3)cc2ncn1-c1ccc2c(c1)NCC(CN1CC[C@H](O)C1)O2 (some centres not stated) | 5.3
CC(C)(C)c1ccc(-c2cc3ncn(-c4ccc5nc(CN6CCOCC6)ccc5c4)c(=O)c3s2)cc1 | 501

Other lines, results leading:

IC50 [nM] | SMILES
7.7 | CN(C)CC1COc2cc(-n3cnc4cc(-c5ccc(Cl)cc5)sc4c3=O)ccc2O1 (configuration not stated)
3.1 | O=c1c2sc(-c3ccc(Cl)cc3)cc2ncn1-c1ccc2nc(CN3CCC(c4ccc(F)cc4)CC3)ccc2c1
3.8 | O=c1c2sc(-c3ccc(Cl)cc3)cc2ncn1-c1ccc2nc(CN3CCN(c4ccccc4)CC3)ccc2c1
2.3 | O=c1c2sc(-c3ccc(Cl)cc3)cc2ncn1-c1ccc2c(c1)NCC(CN1CCCC1)O2 (configuration not stated)
794 | O=c1c2sc(-c3ccccc3)cc2ncn1-c1ccc2nc(CN3CCOCC3)ccc2c1
63 | O=c1c2sc(-c3ccc(Cl)cc3)cc2ncn1-c1ccc2ncccc2c1
200 | CCC(C)c1ccc(-c2cc3ncn(-c4ccc5nc(CN6CCOCC6)ccc5c4)c(=O)c3s2)cc1 (configuration not stated)
4170 | CN(C)CC1CN(S(C)(=O)=O)c2cc(-n3cnc4cc(-c5ccc(Cl)cc5)sc4c3=O)ccc2O1 (configuration not stated)
40 | O=c1c2sc(-c3ccc(Br)cc3)cc2ncn1-c1ccc2nc(CN3CCOCC3)ccc2c1
0.74 | CN(C)Cc1ccc2cc(-n3cnc4cc(-c5ccc(Cl)cc5)sc4c3=O)ccc2n1
25 | CN(C)C[C@H]1COc2cc(-n3cnc4cc(-c5ccc(Cl)cc5)sc4c3=O)ccc2O1
36 | O=c1c2sc(-c3ccc(C(F)(F)F)cc3)cc2ncn1-c1ccc2nc(CN3CCOCC3)ccc2c1
3.5 | O=c1c2sc(-c3ccc(Cl)cc3)cc2ncn1-c1ccc2nc(CO)ccc2c1
8.5 | O=c1c2sc(-c3ccc(Cl)cc3)cc2ncn1-c1ccc2c(c1)NCC(CN1CCOCC1)O2 (configuration not stated)

tested on: Mus musculus; assay: Concentration in DIO AKR/J mouse brain at 1 mg/kg, po; type: ADME, organism-based; design: dose 1 mg/kg, route oral; settings: in vivo

SMILES | Drug uptake [ng/g]
CN1CCN(Cc2ccc3cc(-n4cnc5cc(-c6ccc(Cl)cc6)sc5c4=O)ccc3n2)CC1 | 1421

tested on: not listed separately; assay: Ratio of drug concentration in brain to serum in DIO AKR/J mouse at 3 mg/kg, po; settings: not given

SMILES | Kp
CN1CCN(Cc2ccc3cc(-n4cnc5cc(-c6ccc(Cl)cc6)sc5c4=O)ccc3n2)CC1 | 31

tested on: Mus musculus; assay: Concentration in DIO AKR/J mouse serum at 1 mg/kg, po; type: ADME, organism-based; design: dose 1 mg/kg, route oral; settings: in vivo

SMILES | Drug uptake [ng/mL]
CN1CCN(Cc2ccc3cc(-n4cnc5cc(-c6ccc(Cl)cc6)sc5c4=O)ccc3n2)CC1 | 44

tested on: not listed separately; assay: Total clearance in rat at 3 mg/kg, iv and 10 mg/kg, po; type: ADME, organism-based; settings: in vivo

clearance [mL/min/kg] | SMILES
3.7 | O=c1c2sc(-c3ccc(Cl)cc3)cc2ncn1-c1ccc2nc(CN3CCC(c4ccc(C(F)(F)F)cc4)CC3)ccc2c1
2.9 | O=c1c2sc(-c3ccc(Cl)cc3)cc2ncn1-c1ccc2nc(CN3CCC(c4ccc(F)cc4)CC3)ccc2c1
88 | CN(C)CC1CNc2cc(-n3cnc4cc(-c5ccc(Cl)cc5)sc4c3=O)ccc2O1 (configuration not stated)
11 | O=c1c2sc(-c3ccc(Cl)cc3)cc2ncn1-c1ccc2nc(CN3CCC(c4ccccc4)CC3)ccc2c1
66 | O=c1c2sc(-c3ccc(Cl)cc3)cc2ncn1-c1ccc2c(c1)OC[C@H](CN1CCCC1)O2

SMILES | clearance [mL/min/kg]
CN1CCN(Cc2ccc3cc(-n4cnc5cc(-c6ccc(Cl)cc6)sc5c4=O)ccc3n2)CC1 | 39

tested on: not listed separately; assay: Ratio of drug concentration in brain to serum in DIO AKR/J mouse at 1 mg/kg, po; settings: not given

SMILES | Kp
CN1CCN(Cc2ccc3cc(-n4cnc5cc(-c6ccc(Cl)cc6)sc5c4=O)ccc3n2)CC1 | 31

tested on: Mus musculus; assay: Concentration in DIO AKR/J mouse serum at 3 mg/kg, po; type: ADME, organism-based; design: dose 3 mg/kg, route oral; settings: in vivo

SMILES | Drug uptake [ng/mL]
CN1CCN(Cc2ccc3cc(-n4cnc5cc(-c6ccc(Cl)cc6)sc5c4=O)ccc3n2)CC1 | 178

tested on: Mus musculus; assay: Reduction in body weight of DIO AKR/J mouse relative to control at 10 mg/kg/day, po after 26 days; type: functional; design: scale not given: the % may be the effect or the level left; settings: not given

SMILES | Activity [%]
CN1CCN(Cc2ccc3cc(-n4cnc5cc(-c6ccc(Cl)cc6)sc5c4=O)ccc3n2)CC1 | 16.9

tested on: Mus musculus; assay: Reduction in body weight of DIO AKR/J mouse relative to control at 1 mg/kg/day, po after 26 days; type: functional; design: scale not given: the % may be the effect or the level left; settings: not given

SMILES | Activity [%]
CN1CCN(Cc2ccc3cc(-n4cnc5cc(-c6ccc(Cl)cc6)sc5c4=O)ccc3n2)CC1 | 4.8

tested on: not listed separately; assay: Ratio of drug concentration in brain to serum in DIO AKR/J mouse at 10 mg/kg, po; settings: not given

SMILES | Kp
CN1CCN(Cc2ccc3cc(-n4cnc5cc(-c6ccc(Cl)cc6)sc5c4=O)ccc3n2)CC1 | 31

tested on: not listed separately; assay: Oral bioavailability in rat at 3 mg/kg, iv and 10 mg/kg, po; type: ADME, organism-based; settings: in vivo

bioavailability [%] | SMILES
18 | O=c1c2sc(-c3ccc(Cl)cc3)cc2ncn1-c1ccc2nc(CN3CCC(c4ccc(C(F)(F)F)cc4)CC3)ccc2c1
30 | O=c1c2sc(-c3ccc(Cl)cc3)cc2ncn1-c1ccc2nc(CN3CCC(c4ccc(F)cc4)CC3)ccc2c1
75 | CN(C)CC1CNc2cc(-n3cnc4cc(-c5ccc(Cl)cc5)sc4c3=O)ccc2O1 (configuration not stated)
19 | O=c1c2sc(-c3ccc(Cl)cc3)cc2ncn1-c1ccc2nc(CN3CCC(c4ccccc4)CC3)ccc2c1
65 | O=c1c2sc(-c3ccc(Cl)cc3)cc2ncn1-c1ccc2c(c1)OC[C@H](CN1CCCC1)O2

SMILES | bioavailability [%]
CN1CCN(Cc2ccc3cc(-n4cnc5cc(-c6ccc(Cl)cc6)sc5c4=O)ccc3n2)CC1 | 98
